# Measurements reported in ChEMBL document CHEMBL1201862, “PubChem BioAssay data set” (2004).
#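 Following 48 hours of exposure in 96-well plates, responses at five concentrations were used to interpolate endpoints linearly. At the GI50, growth is halved.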 Active and inactive are the calls of the source. No stated cut-off is given here; in the data, active = GI50 up to about 1.1 µM and inactive = higher.
# Legend:
# Test in all cases: growth of human tumour cells (NCI), 48 h
# [1] = tested on: 786-0
# [2] = tested on: A498
# [3] = tested on: A549
# [4] = tested on: ACHN
# [5] = tested on: BT-549
# [6] = tested on: CAKI-1
# [7] = tested on: CCRF-CEM
# [8] = tested on: COLO 205
# [9] = tested on: DLD-1
# [10] = tested on: DMS-114
# [11] = tested on: DMS-273
# [12] = tested on: DU-145
# [13] = tested on: EKVX
# [14] = tested on: HCC 2998
# [15] = tested on: HCT-116
# [16] = tested on: HCT-15
# [17] = tested on: HL-60
# [18] = tested on: HOP-18
# [19] = tested on: HOP-62
# [20] = tested on: HOP-92
# [21] = tested on: HT-29
# [22] = tested on: Hs-578T
# [23] = tested on: IGROV-1
# [24] = tested on: K562
# [25] = tested on: KM-20L2
# [26] = tested on: KM12
# [27] = tested on: LOX IMVI
# [28] = tested on: LXFL 529
# [29] = tested on: M14
# [30] = tested on: M19-MEL
# [31] = tested on: MCF7
# [32] = tested on: MDA-MB-231
# [33] = tested on: MDA-MB-435
# [34] = tested on: MDA-N
# [35] = tested on: MOLT-4
# [36] = tested on: Malme-3M
# [37] = tested on: NCI-H226
# [38] = tested on: NCI-H23
# [39] = tested on: NCI-H460
# [40] = tested on: NCI-H522
# [41] = tested on: NCI/ADR-RES
# [42] = tested on: OVCAR-3
# [43] = tested on: OVCAR-4
# [44] = tested on: OVCAR-5
# [45] = tested on: OVCAR-8
# [46] = tested on: PC-3
# [47] = tested on: RPMI-8226
# [48] = tested on: RXF 393
# [49] = tested on: SF-268
# [50] = tested on: SF-295
# [51] = tested on: SF-539
# [52] = tested on: SK-MEL-28
# [53] = tested on: SK-MEL-2
# [54] = tested on: SK-MEL-5
# [55] = tested on: SK-OV-3
# [56] = tested on: SN12C
# [57] = tested on: SNB-19
# [58] = tested on: SNB-75
# [59] = tested on: SNB-78
# [60] = tested on: SR
# [61] = tested on: SW-620
# [62] = tested on: T47D
# [63] = tested on: TK-10
# [64] = tested on: U-251
# [65] = tested on: UACC-257
# [66] = tested on: UACC-62
# [67] = tested on: UO-31
# [68] = tested on: XF498
structure (smiles),measurement,setting,value
NC(=O)c1ncn2c(=O)n(CCCl)nnc12 [MITOZOLOMIDE],GI50,[1],28.8 µM (inactive)
same,GI50,[2],191 µM (inactive)
same,GI50,[3],180 µM (inactive)
same,GI50,[4],60.4 µM (inactive)
same,GI50,[5],83.2 µM (inactive)
same,GI50,[6],107 µM (inactive)
same,GI50,[7],32.9 µM (inactive)
same,GI50,[8],112 µM (inactive)
same,GI50,[9],182 µM (inactive)
same,GI50,[10],19.8 µM (inactive)
same,GI50,[11],57.4 µM (inactive)
same,GI50,[12],123 µM (inactive)
same,GI50,[13],197 µM (inactive)
same,GI50,[14],172 µM (inactive)
same,GI50,[15],132 µM (inactive)
same,GI50,[16],175 µM
same,GI50,[17],30.8 µM (inactive)
same,GI50,[18],323 µM (inactive)
same,GI50,[19],29.5 µM (inactive)
same,GI50,[20],136 µM (inactive)
same,GI50,[21],156 µM (inactive)
same,GI50,[22],208 µM (inactive)
same,GI50,[23],132 µM (inactive)
same,GI50,[24],94.4 µM (inactive)
same,GI50,[25],141 µM (inactive)
same,GI50,[26],180 µM (inactive)
same,GI50,[27],22.8 µM (inactive)
same,GI50,[28],> 100 µM (inactive)
same,GI50,[29],195 µM (inactive)
same,GI50,[30],172 µM (inactive)
same,GI50,[31],120 µM (inactive)
same,GI50,[32],220 µM (inactive)
same,GI50,[33],170 µM (inactive)
same,GI50,[34],137 µM (inactive)
same,GI50,[35],45.2 µM (inactive)
same,GI50,[36],145 µM (inactive)
same,GI50,[37],158 µM (inactive)
same,GI50,[38],149 µM (inactive)
same,GI50,[39],50.2 µM (inactive)
same,GI50,[40],131 µM (inactive)
same,GI50,[41],168 µM (inactive)
same,GI50,[42],205 µM (inactive)
same,GI50,[43],187 µM (inactive)
same,GI50,[44],225 µM (inactive)
same,GI50,[45],101 µM (inactive)
same,GI50,[46],177 µM (inactive)
same,GI50,[47],229 µM (inactive)
same,GI50,[48],160 µM (inactive)
same,GI50,[49],31.6 µM (inactive)
same,GI50,[50],37.7 µM (inactive)
same,GI50,[51],31 µM (inactive)
same,GI50,[52],252 µM (inactive)
same,GI50,[53],249 µM (inactive)
same,GI50,[54],156 µM (inactive)
same,GI50,[55],52.6 µM (inactive)
same,GI50,[56],115 µM (inactive)
same,GI50,[57],93.5 µM (inactive)
same,GI50,[58],50 µM (inactive)
same,GI50,[59],185 µM (inactive)
same,GI50,[60],47.3 µM (inactive)
same,GI50,[61],135 µM (inactive)
same,GI50,[62],214 µM (inactive)
same,GI50,[63],229 µM (inactive)
same,GI50,[64],40.4 µM (inactive)
same,GI50,[65],159 µM (inactive)
same,GI50,[66],24.7 µM (inactive)
same,GI50,[67],236 µM (inactive)
same,GI50,[68],12.1 µM (inactive)
